From US10544143B2, “4-azaindole compounds” (BRISTOL-MYERS SQUIBB COMPANY, priority 2017, dated 2020)
Where two headings read alike, the source gives them in different places.

Key:
[1] = biological target: human TLR9 (Homo sapiens (Human), UniProt Q9NR96); assay: TLR9 inhibition reporter assay (HEK-Blue SEAP); details: read-out: TLR9 IC50;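 further: SEAP driven by an IFN-β minimal promoter with NF-κB and AP-1 sites, read after 22 h, compounds dosed 0.05 nM–50 µM, inhibition scaled between agonist plus DMSO and reference-inhibitor wells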
[2] = biological target: human TLR7 (Homo sapiens (Human), UniProt Q9NYK1); assay: TLR7 inhibition reporter assay (HEK-Blue SEAP); format: cell-based
[3] = biological target: human TLR8 (Homo sapiens (Human), UniProt Q9NR97); assay: TLR8 inhibition reporter assay (HEK-Blue SEAP); details: read-out: TLR8 IC50;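 further: SEAP driven by IFN-β minimal promoter carrying NF-κB and AP-1 sites, compounds dosed 0.05 nM to 50 µM for 22 h, inhibition scaled between agonist-plus-DMSO and reference-inhibitor wells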
[4] = HEK-Blue human TLR9 cells, ODN2006 5 nM
[5] = HEK-Blue human TLR7 cells, gardiquimod 7.5 μM
[6] = HEK-Blue human TLR8 cells, R848 15.9 μM
[7] = HEK-Blue cells overexpressing human TLR9, SEAP reporter, ODN2006 5 nM
[8] = HEK-Blue cells overexpressing human TLR7, SEAP reporter, gardiquimod 7.5 μM
[9] = HEK-Blue cells overexpressing human TLR8, SEAP reporter, R848 15.9 μM
[10] = HEK-Blue cells overexpressing human TLR9, ODN2006 5 nM stimulation, SEAP reporter
[11] = HEK-Blue cells overexpressing human TLR7, gardiquimod 7.5 μM stimulation, SEAP reporter
[12] = HEK-Blue cells overexpressing human TLR8, R848 15.9 μM stimulation, SEAP reporter

Chain of human TLR7 (Q9NYK1 27-1049): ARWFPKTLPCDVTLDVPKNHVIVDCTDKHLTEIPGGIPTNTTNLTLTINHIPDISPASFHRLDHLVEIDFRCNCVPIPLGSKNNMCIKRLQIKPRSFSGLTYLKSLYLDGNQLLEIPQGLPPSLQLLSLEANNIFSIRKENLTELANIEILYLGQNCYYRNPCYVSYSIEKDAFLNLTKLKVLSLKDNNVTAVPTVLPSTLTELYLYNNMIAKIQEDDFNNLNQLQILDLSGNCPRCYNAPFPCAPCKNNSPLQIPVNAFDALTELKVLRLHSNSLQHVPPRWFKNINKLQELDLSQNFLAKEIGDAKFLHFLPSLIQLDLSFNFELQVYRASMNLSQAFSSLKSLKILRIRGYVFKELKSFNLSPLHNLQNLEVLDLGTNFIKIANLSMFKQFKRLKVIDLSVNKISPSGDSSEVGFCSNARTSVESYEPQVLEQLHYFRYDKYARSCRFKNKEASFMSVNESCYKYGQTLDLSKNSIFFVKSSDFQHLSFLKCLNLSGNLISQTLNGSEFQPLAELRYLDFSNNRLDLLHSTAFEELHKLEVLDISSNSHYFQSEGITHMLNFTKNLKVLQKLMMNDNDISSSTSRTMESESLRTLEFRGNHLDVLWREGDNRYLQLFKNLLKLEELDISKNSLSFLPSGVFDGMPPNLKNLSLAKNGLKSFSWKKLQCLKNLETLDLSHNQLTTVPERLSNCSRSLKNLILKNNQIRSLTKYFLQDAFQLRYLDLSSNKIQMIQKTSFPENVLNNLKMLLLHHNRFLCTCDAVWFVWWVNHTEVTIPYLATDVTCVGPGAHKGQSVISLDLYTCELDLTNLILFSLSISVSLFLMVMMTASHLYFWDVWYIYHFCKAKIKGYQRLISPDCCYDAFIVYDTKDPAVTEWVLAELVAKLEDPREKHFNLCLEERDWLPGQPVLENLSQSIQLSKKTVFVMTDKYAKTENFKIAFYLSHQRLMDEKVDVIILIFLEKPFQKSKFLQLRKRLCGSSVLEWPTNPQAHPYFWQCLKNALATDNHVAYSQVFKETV
Chain of human TLR9 (Q9NR96 26-1032): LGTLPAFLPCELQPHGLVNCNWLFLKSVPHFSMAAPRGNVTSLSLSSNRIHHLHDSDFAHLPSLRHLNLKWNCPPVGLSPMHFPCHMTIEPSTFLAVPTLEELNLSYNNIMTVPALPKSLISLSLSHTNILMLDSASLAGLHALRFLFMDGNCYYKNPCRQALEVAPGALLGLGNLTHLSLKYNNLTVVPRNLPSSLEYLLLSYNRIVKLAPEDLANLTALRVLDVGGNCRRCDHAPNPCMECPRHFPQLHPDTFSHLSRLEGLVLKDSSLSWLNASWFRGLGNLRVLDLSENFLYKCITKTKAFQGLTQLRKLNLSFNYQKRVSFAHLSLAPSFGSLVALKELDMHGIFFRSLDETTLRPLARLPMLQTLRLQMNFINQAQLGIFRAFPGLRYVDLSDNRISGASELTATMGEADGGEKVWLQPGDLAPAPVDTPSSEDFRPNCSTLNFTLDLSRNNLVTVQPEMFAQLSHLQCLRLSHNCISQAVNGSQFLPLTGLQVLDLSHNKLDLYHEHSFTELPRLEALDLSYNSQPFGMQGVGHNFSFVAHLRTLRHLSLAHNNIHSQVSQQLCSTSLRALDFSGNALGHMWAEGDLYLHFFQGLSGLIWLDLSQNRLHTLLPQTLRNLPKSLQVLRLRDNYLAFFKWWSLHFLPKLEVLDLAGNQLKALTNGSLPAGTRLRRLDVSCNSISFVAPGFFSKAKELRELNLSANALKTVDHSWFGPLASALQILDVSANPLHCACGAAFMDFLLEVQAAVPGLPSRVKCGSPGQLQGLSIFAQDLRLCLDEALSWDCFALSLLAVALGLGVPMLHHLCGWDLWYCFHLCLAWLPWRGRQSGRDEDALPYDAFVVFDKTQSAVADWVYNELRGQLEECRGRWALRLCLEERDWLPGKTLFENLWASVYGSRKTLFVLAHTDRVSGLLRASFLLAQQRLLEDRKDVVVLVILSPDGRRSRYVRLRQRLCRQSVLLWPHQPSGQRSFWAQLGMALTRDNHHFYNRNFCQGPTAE
Chain of human TLR8 (Q9NR97 27-1041): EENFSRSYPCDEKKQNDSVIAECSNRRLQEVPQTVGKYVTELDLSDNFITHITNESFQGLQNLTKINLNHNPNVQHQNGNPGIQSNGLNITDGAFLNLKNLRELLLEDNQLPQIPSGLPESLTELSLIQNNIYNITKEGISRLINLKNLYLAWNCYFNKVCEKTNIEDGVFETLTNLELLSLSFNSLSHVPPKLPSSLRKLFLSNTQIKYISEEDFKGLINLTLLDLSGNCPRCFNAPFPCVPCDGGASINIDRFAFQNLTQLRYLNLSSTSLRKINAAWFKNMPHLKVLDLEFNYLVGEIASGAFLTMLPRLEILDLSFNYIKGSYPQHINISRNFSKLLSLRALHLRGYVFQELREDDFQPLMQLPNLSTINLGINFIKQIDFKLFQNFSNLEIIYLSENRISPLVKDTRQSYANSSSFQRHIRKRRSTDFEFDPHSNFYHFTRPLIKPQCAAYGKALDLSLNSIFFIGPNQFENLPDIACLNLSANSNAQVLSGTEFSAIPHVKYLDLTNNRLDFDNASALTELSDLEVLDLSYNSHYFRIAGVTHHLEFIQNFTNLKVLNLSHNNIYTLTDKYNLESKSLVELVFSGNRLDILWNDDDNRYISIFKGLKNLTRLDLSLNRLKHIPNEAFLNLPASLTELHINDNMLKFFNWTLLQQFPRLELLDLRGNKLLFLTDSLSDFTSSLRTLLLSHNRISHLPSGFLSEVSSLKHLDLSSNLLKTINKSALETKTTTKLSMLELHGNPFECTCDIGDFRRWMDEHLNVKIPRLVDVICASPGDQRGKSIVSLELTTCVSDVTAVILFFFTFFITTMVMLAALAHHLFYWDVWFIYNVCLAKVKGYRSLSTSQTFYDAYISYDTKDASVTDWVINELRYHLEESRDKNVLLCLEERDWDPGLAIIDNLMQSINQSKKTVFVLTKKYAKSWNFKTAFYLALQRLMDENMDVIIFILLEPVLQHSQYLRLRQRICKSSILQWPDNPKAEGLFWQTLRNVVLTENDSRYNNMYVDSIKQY

| IC50 [1, 7] | IC50 [2, 8] | IC50 [3, 9] | IC50 [1, 10] | IC50 [2, 11] | IC50 [3, 12] | also measured | SMILES |
| --- | --- | --- | --- | --- | --- | --- | --- |
| – | – | – | – | – | – | IC50 [1, 4]: 8770 nM; IC50 [2, 5]: 1.9 nM; IC50 [3, 6]: 0.66 nM | Cc1c(-c2[nH]c3ccc(N4CCN(C(=O)CN5CCC6(CCOC6)C5)CC4)nc3c2C(C)C)cn2ncnc2c1C (stereo not drawn) [Example 947] |
| 3140 nM | 1.9 nM | 11 nM | – | – | – | – | COc1cc(-c2[nH]c3ccc(C4CCC(NC(=O)CN(C)C)C4)nc3c2C(C)C)cn2ncnc12 (stereo not drawn) [Example 712] |
| – | – | – | – | – | – | IC50 [1, 4]: 39700 nM; IC50 [2, 5]: 4.3 nM; IC50 [3, 6]: 4 nM | Cc1c(-c2[nH]c3ccc(N4CCN(CC(=O)N(C)C)C[C@@H]4C)nc3c2C(C)C)cn2ncnc2c1C [Example 803] |
| – | – | – | 2640 nM | 0.12 nM | 0.32 nM | – | COc1cc(-c2[nH]c3cc(F)c(C4CCC(NCC5(C)COC5)CC4)nc3c2C(C)C)cn2ncnc12 (stereo not drawn) [Example 341] |
| 5800 nM | 59 nM | 204 nM | – | – | – | – | Cc1c(-c2[nH]c3ccc(C4CCC(N)CC4)nc3c2C(C)C)cn2ncnc2c1C (stereo not drawn) [Example 466] |
| – | – | – | 453 nM | 1.9 nM | 2.6 nM | – | CC(C)c1c(-c2cn(C)c3ncccc23)[nH]c2ccc(C3CCC(NC4CCOCC4)CC3)nc12 (stereo not drawn) [Example 267] |
| – | – | – | 6380 nM | 0.77 nM | 0.41 nM | – | CC(C)c1c(-c2cc(CO)c3ncnn3c2)[nH]c2ccc(N3CCC(NCC4(C)COC4)CC3)nc12 [Example 82] |
| 1290 nM | 19 nM | 21 nM | – | – | – | – | Cc1cc(-c2[nH]c3ccc(C4CCN(C(=O)CN(C)C)CC4)nc3c2C(C)C)cn(C)c1=O [Example 531] |
| – | – | – | – | – | – | IC50 [1, 4]: 7930 nM; IC50 [2, 5]: 0.74 nM; IC50 [3, 6]: 1.1 nM | CCN(CC)CC(=O)N1C[C@H](C)N(c2ccc3[nH]c(-c4cn5ncnc5c(C)c4C)c(C(C)C)c3n2)C[C@H]1C [Example 895] |
| – | – | – | 1750 nM | 3.2 nM | 6.1 nM | – | Cc1c(-c2[nH]c3ccc(C4CCC(N5CCC[C@H]5CO)CC4)nc3c2C(C)C)cn2ncnc2c1C (stereo partly drawn) [Example 392] |
| – | – | – | > 50000 nM | 21 nM | 350 nM | – | COc1cc(-c2[nH]c3cc(C)c(C4CCC(N5CC(F)(F)C5)CC4)nc3c2C(C)C)cn2ncnc12 (stereo not drawn) [Example 337] |
| – | – | – | 712 nM | 1.7 nM | 10 nM | – | COc1cc(-c2[nH]c3ccc(C4CCC(NCc5cnc(C)cn5)CC4)nc3c2C(C)C)cn2ncnc12 (stereo not drawn) [Example 196] |
| – | – | – | 13200 nM | 4.7 nM | 1.6 nM | – | COc1cc(-c2[nH]c3ccc(N4CCN(CCCC(F)(F)F)CC4)nc3c2C(C)C)cn2ncnc12 [Example 135] |
| 7730 nM | 2.6 nM | 8.1 nM | – | – | – | – | Cc1c(-c2[nH]c3ccc(C4CCC(N(CC#N)CC(=O)N(C)C)CC4)nc3c2C(C)C)cn2ncnc2c1C (stereo not drawn) [Example 456] |
| 16100 nM | 2.3 nM | 42 nM | – | – | – | – | Cc1cc(-c2[nH]c3cc(F)c(C4CCN(C5COC5)CC4)nc3c2C(C)C)cn2ncnc12 [Example 588] |
| – | – | – | – | – | – | IC50 [1, 4]: 9780 nM; IC50 [2, 5]: 1.9 nM; IC50 [3, 6]: 4.9 nM | Cc1c(-c2[nH]c3ccc(N4CCN(C(C)C)C[C@H]4C)nc3c2C(C)C)cn2ncnc2c1C [Example 833] |
| 8560 nM | 4 nM | 1 nM | – | – | – | – | Cc1c(-c2[nH]c3ccc(N4CCN(C(C)C)[C@@H](C)C4)nc3c2C(C)C)cn2ncnc2c1C [Example 792] |
| – | – | – | – | – | – | IC50 [1, 4]: 3070 nM; IC50 [2, 5]: 7.2 nM; IC50 [3, 6]: 6.4 nM | CCN(C1CCC(c2ccc3[nH]c(-c4cn5ncnc5c(C)c4C)c(C(C)C)c3n2)CC1)C1COC1 (stereo not drawn) [Example 1039] |
| 2060 nM | 0.62 nM | 1.9 nM | – | – | – | – | CNC(=O)CNC1CCC(c2ccc3[nH]c(-c4cc(OC)c5ncnn5c4)c(C(C)C)c3n2)C1 (stereo not drawn) [Example 725] |
| – | – | – | – | – | – | IC50 [1, 4]: 1690 nM; IC50 [2, 5]: 0.59 nM; IC50 [3, 6]: 1.4 nM | Cc1c(-c2[nH]c3ccc(N4CC5(C4)CN(C4CCOCC4)C5)nc3c2C(C)C)cn2ncnc2c1C [Example 1012] |
| 13600 nM | 3.8 nM | 8.2 nM | – | – | – | – | Cc1c(-c2[nH]c3ccc(C4CN(C(C)C)CCO4)nc3c2C(C)C)cn2ncnc2c1C (stereo not drawn) [Example 658] |
| – | – | – | 8570 nM | 3.3 nM | 0.63 nM | – | COCCN1CCN(c2ccc3[nH]c(-c4cc(OC)c5ncnn5c4)c(C(C)C)c3n2)CC1 [Example 131] |
| 5130 nM | 0.94 nM | 1.2 nM | – | – | – | – | Cc1c(-c2[nH]c3ccc(C4CCC(NC5(CO)COC5)CC4)nc3c2C(C)C)cn2ncnc2c1C (stereo not drawn) [Example 483] |
| – | – | – | 1230 nM | 0.55 nM | 6.9 nM | – | CC(C)c1c(-c2cn(C)c3ncncc23)[nH]c2ccc(C3CCC(NCC(=O)N(C)C)CC3)nc12 (stereo not drawn) [Example 303] |
